How the values were obtained:
[1] = molecular target: T1, Human immunodeficiency virus type 1 reverse transcriptase (Human immunodeficiency virus 1, UniProt Q72547, L100I); assay: Inhibition of HIV1 reverse transcriptase L100I mutant
[2] = molecular target: T2, Human immunodeficiency virus type 1 reverse transcriptase (Human immunodeficiency virus 1, UniProt Q72547, V179D); assay: Inhibition of HIV1 reverse transcriptase V179D mutant
[3] = molecular target: T3, Human immunodeficiency virus type 1 reverse transcriptase (Human immunodeficiency virus 1, UniProt Q72547); assay: Inhibition of HIV1 wild type reverse transcriptase
[4] = molecular target: T4, Human immunodeficiency virus type 1 reverse transcriptase (Human immunodeficiency virus 1, UniProt Q72547, K103N); assay: Inhibition of HIV1 reverse transcriptase K103N mutant
[5] = molecular target: T2, Human immunodeficiency virus type 1 reverse transcriptase; assay: Inhibition of HIV1 reverse transcriptase V179D mutant/poly(rA)/oligo(dT) DNA/dTTP ternary complex
[6] = molecular target: T1, Human immunodeficiency virus type 1 reverse transcriptase; assay: Inhibition of HIV1 reverse transcriptase L100I mutant/poly(rA)/oligo(dT) DNA binary complex
[7] = molecular target: T4, Human immunodeficiency virus type 1 reverse transcriptase; assay: Inhibition of HIV1 free reverse transcriptase K103N mutant
[8] = molecular target: T3, Human immunodeficiency virus type 1 reverse transcriptase; assay: Inhibition of HIV1 free wild type reverse transcriptase
[9] = molecular target: T1, Human immunodeficiency virus type 1 reverse transcriptase; assay: Inhibition of HIV1 free reverse transcriptase L100I mutant
[10] = molecular target: T1, Human immunodeficiency virus type 1 reverse transcriptase; assay: Inhibition of HIV1 reverse transcriptase L100I mutant/poly(rA)/oligo(dT) DNA/dTTP ternary complex
[11] = molecular target: T2, Human immunodeficiency virus type 1 reverse transcriptase; assay: Inhibition of HIV1 reverse transcriptase V179D mutant/poly(rA)/oligo(dT) DNA binary complex
[12] = molecular target: T4, Human immunodeficiency virus type 1 reverse transcriptase; assay: Inhibition of HIV1 reverse transcriptase K103N mutant/poly(rA)/oligo(dT) DNA binary complex
[13] = molecular target: T3, Human immunodeficiency virus type 1 reverse transcriptase; assay: Inhibition of HIV1 wild type reverse transcriptase/poly(rA)/oligo(dT) DNA/dTTP ternary complex
[14] = molecular target: T3, Human immunodeficiency virus type 1 reverse transcriptase; assay: Inhibition of HIV1 wild type reverse transcriptase/poly(rA)/oligo(dT) DNA binary complex
[15] = molecular target: T2, Human immunodeficiency virus type 1 reverse transcriptase; assay: Inhibition of HIV1 free reverse transcriptase V179D mutant
[16] = molecular target: T4, Human immunodeficiency virus type 1 reverse transcriptase; assay: Inhibition of HIV1 reverse transcriptase K103N mutant/poly(rA)/oligo(dT) DNA/dTTP ternary complex

SMILES | IC50 [1] | IC50 [2] | IC50 [3] | IC50 [4] | Ki [5] | Ki [6] | Ki [7] | Ki [8] | Ki [9] | Ki [10] | Ki [11] | Ki [12] | Ki [13] | Ki [14] | Ki [15] | Ki [16]
CCC1(c2ccc(CSc3ccccc3)cc2)Oc2ccccc2-n2cccc2C1=O (racemic) | 990 nM | 150 nM | 60 nM | 250 nM |  |  |  |  |  |  |  |  |  |  |  | 
CCC1(c2ccc(CSc3ccc(F)cc3)cc2)Oc2ccccc2-n2cccc2C1=O (racemic) | > 400000 nM | > 40000 nM | 250 nM | 3350 nM |  |  |  |  |  |  |  |  |  |  |  | 
CCC1(c2ccc(CSc3ccc(Br)cc3)cc2)Oc2ccccc2-n2cccc2C1=O (racemic) | > 400000 nM | 290 nM | 60 nM | 1160 nM |  |  |  |  |  |  |  |  |  |  |  | 
CCC1(c2ccc(CSc3c(Cl)cccc3Cl)cc2)Oc2ccccc2-n2cccc2C1=O (racemic) | > 400000 nM | > 40000 nM | 7360 nM | > 400000 nM |  |  |  |  |  |  |  |  |  |  |  | 
CCC1(c2ccc(CSc3ccc(F)cc3Cl)cc2)Oc2ccccc2-n2cccc2C1=O (racemic) | > 400000 nM | > 40000 nM | 610 nM | 20500 nM |  |  |  |  |  |  |  |  |  |  |  | 
CCC1(c2ccc(COc3ccccc3)cc2)Oc2ccccc2-n2cccc2C1=O (racemic) | 200 nM |  | 150 nM | 400 nM |  |  |  |  |  |  |  |  |  |  |  | 
CCC1(c2ccc(COc3cccc(Cl)c3)cc2)Oc2ccccc2-n2cccc2C1=O (racemic) | 250 nM | 300 nM | 100 nM | 300 nM |  |  |  |  |  |  |  |  |  |  |  | 
CCC1(c2ccc(CSc3ccccc3)cc2)Oc2ccccc2-n2cccc2C1=O (single isomer, unassigned; (+)) |  |  |  |  | 540 nM | 700 nM | 1350 nM | 420 nM | 700 nM | 510 nM | 780 nM | 1350 nM | 100 nM | 420 nM | 780 nM | 780 nM
CCC1(c2ccc(CSc3ccc(Br)cc3)cc2)Oc2ccccc2-n2cccc2C1=O (single isomer, unassigned; (+)) |  |  |  |  | 190 nM | 1200 nM | 2210 nM | 400 nM | 1200 nM | 30 nM | 620 nM | 2210 nM | 110 nM | 400 nM | 620 nM | 1040 nM
CCC1(c2ccc(CSc3ccc(F)cc3Cl)cc2)Oc2ccccc2-n2cccc2C1=O (single isomer, unassigned; (+)) |  |  |  |  | 120 nM | 200 nM | 510 nM | 90 nM | 200 nM | 150 nM | 140 nM | 510 nM | 10 nM | 90 nM | 140 nM | 20 nM
